# Assay results reported in paper PMC4051630, “A Comparison of Protein Kinases Inhibitor Screening Methods Using Both Enzymatic Activity and Binding Affinity Determination” (PLoS ONE, 2014).
# What was measured:
# Experiment in all cases: Differential Scanning Fluorimetry (DSF) Tm shift
# Format in all cases: binding
# [1] = target: SRC Catalytic Domain+SH2+SH3 (Homo sapiens, UniProt P12931); settings: 2 µM protein, 10 µM inhibitor, average of 3 experiments, each in duplicate
# PAK7 Catalytic Domain = target: T1, PAK7 Catalytic Domain (Homo sapiens, UniProt Q9P286); settings: 2 µM protein, 10 µM inhibitor, average of 3 experiments, each in duplicate
# T1 construct: For all of them, we expressed and purified the catalytic domain separately; His-tag; made in house; host or cells: Escherichia coli
# SRC Catalytic Domain = SRC Catalytic Domain (Homo sapiens, UniProt P12931); set-up: For all of them, we expressed and purified the catalytic domain separately; His-tag; made in house; host or cells: Escherichia coli; settings: 2 µM protein, 10 µM inhibitor, average of 3 experiments, each in duplicate
# STK3 Catalytic Domain = target: T2, STK3 Catalytic Domain (Homo sapiens, UniProt Q13188); settings: 2 µM protein, 10 µM inhibitor, average of 3 experiments, each in duplicate
# T2 construct: For all of them, we expressed and purified the catalytic domain separately; His-tag; made in house; host or cells: Escherichia coli
# T2 sequence (Q13188 27-278 limits assumed): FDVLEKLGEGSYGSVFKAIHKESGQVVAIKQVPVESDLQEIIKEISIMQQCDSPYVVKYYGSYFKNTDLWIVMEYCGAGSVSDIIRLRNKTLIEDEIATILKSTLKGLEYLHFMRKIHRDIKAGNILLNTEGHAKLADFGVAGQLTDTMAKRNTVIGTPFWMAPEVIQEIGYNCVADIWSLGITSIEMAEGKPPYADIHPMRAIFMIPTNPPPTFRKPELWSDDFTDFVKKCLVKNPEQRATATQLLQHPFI
# DMPK Catalytic Domain = target: T3, DMPK Catalytic Domain (Homo sapiens, UniProt Q09013); settings: 2 µM protein, 10 µM inhibitor, average of 3 experiments, each in duplicate
# T3 construct: For all of them, we expressed and purified the catalytic domain separately; His-tag; made in house; host or cells: Escherichia coli
# T3 sequence (Q09013 71-339 limits assumed): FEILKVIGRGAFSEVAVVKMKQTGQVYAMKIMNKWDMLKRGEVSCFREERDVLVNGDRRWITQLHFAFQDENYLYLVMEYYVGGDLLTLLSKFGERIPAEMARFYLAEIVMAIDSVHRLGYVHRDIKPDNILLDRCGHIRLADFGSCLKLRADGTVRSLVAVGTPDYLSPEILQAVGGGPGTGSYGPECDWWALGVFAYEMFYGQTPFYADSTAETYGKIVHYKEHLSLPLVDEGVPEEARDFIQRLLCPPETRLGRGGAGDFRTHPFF
# PAK4 Catalytic Domain = target: T4, PAK4 Catalytic Domain (Homo sapiens, UniProt O96013); settings: 2 µM protein, 10 µM inhibitor, average of 3 experiments, each in duplicate
# T4 construct: For all of them, we expressed and purified the catalytic domain separately; His-tag; made in house; host or cells: Escherichia coli
# FES Catalytic Domain+SH2 = target: T5, FES Catalytic Domain+SH2 (Homo sapiens, UniProt P07332); settings: 2 µM protein, 10 µM inhibitor, average of 3 experiments, each in duplicate
# T5 construct: for 8, we also made a longer version containing one or more additional domains; His-tag; made in house; host or cells: Escherichia coli
# [2] = target: T6, STK3 Catalytic domain+SARAH (Homo sapiens, UniProt Q13188); settings: 2 µM protein, 10 µM inhibitor, average of 3 experiments, each in duplicate
# T6 construct: for 8, we also made a longer version containing one or more additional domains; His-tag; made in house; host or cells: Escherichia coli
# T6 sequence (Q13188 1-491): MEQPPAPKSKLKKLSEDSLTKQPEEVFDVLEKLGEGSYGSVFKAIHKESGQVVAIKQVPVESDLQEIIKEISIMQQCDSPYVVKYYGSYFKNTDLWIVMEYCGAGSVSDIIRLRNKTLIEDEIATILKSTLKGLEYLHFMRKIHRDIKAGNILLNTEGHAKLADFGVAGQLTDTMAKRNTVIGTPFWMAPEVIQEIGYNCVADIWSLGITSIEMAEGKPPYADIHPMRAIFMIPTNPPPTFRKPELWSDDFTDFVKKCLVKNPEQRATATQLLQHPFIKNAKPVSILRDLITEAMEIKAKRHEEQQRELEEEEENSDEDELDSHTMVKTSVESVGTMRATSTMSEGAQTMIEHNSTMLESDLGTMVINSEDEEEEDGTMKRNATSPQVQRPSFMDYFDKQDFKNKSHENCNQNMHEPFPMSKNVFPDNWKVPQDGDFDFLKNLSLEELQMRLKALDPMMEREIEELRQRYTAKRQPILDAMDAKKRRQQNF
# FAK2 Catalytic Domain = target: T7, FAK2 Catalytic Domain (Homo sapiens, UniProt Q14289); settings: 2 µM protein, 10 µM inhibitor, average of 3 experiments, each in duplicate
# T7 construct: For all of them, we expressed and purified the catalytic domain separately; His-tag; made in house; host or cells: Escherichia coli
# CDK2 + Cyclin E = target: T8, CDK2 + Cyclin E (Homo sapiens, UniProt P24941); settings: CDK2 + Cyclin E; 2 µM protein, 10 µM inhibitor; average of 3 experiments, each in duplicate
# T8 construct: CDK2 (P24941); 1–299; His-tag; made in house; host or cells: Escherichia coli
# AKT3 Catalytic Domain = target: T9, AKT3 Catalytic Domain (Homo sapiens, UniProt Q9Y243); settings: 2 µM protein, 10 µM inhibitor, average of 3 experiments, each in duplicate
# T9 construct: AKT3 (Q9Y243); CD; His-tag; made in house; host or cells: Escherichia coli
# [3] = target: T10, PAK4 Catalytic Domain+PBD (Homo sapiens, UniProt O96013); settings: 2 µM protein, 10 µM inhibitor, average of 3 experiments, each in duplicate
# T10 construct: for 8, we also made a longer version containing one or more additional domains; His-tag; made in house; host or cells: Escherichia coli
# CDK2 + Cyclin A = target: T11, CDK2 + Cyclin A (Homo sapiens, UniProt P24941); settings: CDK2 + Cyclin A; 2 µM protein, 10 µM inhibitor; average of 3 experiments, each in duplicate
# T11 construct: CDK2 (P24941); 1–299; His-tag; made in house; host or cells: Escherichia coli
# CHK2 Catalytic Domain = target: T12, CHK2 Catalytic Domain (Homo sapiens, UniProt O96017); settings: 2 µM protein, 10 µM inhibitor, average of 3 experiments, each in duplicate
# T12 construct: For all of them, we expressed and purified the catalytic domain separately; His-tag; made in house; host or cells: Escherichia coli
# FES Catalytic Domain = target: T13, FES Catalytic Domain (Homo sapiens, UniProt P07332); settings: 2 µM protein, 10 µM inhibitor, average of 3 experiments, each in duplicate
# T13 construct: For all of them, we expressed and purified the catalytic domain separately; His-tag; made in house; host or cells: Escherichia coli
# T13 sequence (P07332 561-822 limits assumed): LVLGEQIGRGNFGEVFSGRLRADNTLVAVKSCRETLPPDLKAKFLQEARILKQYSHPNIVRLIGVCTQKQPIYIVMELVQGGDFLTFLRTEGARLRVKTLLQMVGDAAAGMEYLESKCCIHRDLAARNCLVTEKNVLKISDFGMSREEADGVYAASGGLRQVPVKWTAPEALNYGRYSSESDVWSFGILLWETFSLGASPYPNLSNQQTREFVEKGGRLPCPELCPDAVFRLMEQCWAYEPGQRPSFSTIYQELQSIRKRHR
# T5 sequence (P07332 448-822 limits assumed): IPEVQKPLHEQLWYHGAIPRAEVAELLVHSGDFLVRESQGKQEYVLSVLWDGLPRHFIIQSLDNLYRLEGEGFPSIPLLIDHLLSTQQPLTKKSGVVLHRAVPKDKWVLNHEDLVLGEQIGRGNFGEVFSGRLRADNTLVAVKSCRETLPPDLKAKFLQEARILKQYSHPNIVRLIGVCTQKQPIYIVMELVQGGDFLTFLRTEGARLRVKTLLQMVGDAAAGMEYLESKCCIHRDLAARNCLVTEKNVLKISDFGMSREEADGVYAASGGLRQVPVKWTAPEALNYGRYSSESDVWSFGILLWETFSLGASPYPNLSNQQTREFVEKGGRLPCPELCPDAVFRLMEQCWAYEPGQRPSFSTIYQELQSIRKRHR
# T1 sequence (Q9P286 449-700 limits assumed): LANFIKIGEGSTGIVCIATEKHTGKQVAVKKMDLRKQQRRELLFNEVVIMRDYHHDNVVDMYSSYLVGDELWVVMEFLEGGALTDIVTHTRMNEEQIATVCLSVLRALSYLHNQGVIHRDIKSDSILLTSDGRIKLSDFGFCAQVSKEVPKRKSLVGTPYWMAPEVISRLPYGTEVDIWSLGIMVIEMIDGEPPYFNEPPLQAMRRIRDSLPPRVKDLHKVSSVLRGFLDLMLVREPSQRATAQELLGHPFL
# T7 sequence (Q14289 425-683 limits assumed): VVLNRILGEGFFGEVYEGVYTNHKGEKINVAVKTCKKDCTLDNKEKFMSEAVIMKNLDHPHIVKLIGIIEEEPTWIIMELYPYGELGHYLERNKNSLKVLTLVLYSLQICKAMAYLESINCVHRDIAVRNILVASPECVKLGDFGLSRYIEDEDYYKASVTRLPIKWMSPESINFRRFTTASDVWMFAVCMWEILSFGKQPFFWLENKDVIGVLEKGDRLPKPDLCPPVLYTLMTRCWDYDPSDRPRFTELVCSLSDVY
# T10 sequence (O96013 whole entry, the tested form may be a part): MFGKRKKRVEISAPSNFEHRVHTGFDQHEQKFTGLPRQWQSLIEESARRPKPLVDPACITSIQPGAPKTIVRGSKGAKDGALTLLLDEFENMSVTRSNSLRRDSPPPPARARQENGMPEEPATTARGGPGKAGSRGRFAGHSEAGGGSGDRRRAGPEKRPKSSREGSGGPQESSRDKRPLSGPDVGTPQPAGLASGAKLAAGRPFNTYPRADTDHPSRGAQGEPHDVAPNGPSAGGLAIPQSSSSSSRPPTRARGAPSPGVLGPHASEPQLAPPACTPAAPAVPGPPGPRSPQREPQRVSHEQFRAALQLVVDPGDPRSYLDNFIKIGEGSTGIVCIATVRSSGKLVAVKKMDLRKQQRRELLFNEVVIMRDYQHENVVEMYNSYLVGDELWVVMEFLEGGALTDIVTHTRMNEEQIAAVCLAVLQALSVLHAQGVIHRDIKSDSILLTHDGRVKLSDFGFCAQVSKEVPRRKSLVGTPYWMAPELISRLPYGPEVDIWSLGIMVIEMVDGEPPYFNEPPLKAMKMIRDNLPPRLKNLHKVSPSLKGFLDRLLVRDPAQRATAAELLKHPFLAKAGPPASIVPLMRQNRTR
# T4 sequence (O96013 321-572 limits assumed): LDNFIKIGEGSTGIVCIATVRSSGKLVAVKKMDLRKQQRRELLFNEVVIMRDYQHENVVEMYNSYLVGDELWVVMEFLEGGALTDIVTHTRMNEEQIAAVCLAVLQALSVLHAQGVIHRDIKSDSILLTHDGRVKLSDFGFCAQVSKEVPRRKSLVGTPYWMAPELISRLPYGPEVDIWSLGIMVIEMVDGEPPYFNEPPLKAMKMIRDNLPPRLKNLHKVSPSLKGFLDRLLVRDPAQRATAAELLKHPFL
# T12 sequence (O96017 220-486 limits assumed): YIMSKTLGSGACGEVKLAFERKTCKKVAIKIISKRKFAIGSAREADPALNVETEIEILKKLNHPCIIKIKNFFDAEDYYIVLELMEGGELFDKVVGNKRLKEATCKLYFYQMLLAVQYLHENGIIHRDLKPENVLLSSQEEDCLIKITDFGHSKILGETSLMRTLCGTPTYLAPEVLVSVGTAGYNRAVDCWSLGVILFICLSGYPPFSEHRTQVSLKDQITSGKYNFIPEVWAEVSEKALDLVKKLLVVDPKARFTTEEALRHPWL
# T9 sequence (Q9Y243 122-479): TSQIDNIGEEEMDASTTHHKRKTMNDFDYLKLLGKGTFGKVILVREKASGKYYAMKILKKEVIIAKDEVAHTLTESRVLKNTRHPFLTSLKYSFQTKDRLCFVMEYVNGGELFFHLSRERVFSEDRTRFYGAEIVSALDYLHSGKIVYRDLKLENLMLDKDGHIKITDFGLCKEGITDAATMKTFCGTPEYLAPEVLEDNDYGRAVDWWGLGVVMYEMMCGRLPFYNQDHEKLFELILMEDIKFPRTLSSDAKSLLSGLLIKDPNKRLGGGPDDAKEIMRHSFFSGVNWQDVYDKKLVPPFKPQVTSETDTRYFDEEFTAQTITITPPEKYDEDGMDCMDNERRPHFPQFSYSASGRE
Compound,Melting temperature (Tm) shift [1],Melting temperature (Tm) shift (PAK7 Catalytic Domain),Melting temperature (Tm) shift (SRC Catalytic Domain),Melting temperature (Tm) shift (STK3 Catalytic Domain),Melting temperature (Tm) shift (DMPK Catalytic Domain),Melting temperature (Tm) shift (PAK4 Catalytic Domain),Melting temperature (Tm) shift (FES Catalytic Domain+SH2),Melting temperature (Tm) shift [2],Melting temperature (Tm) shift (FAK2 Catalytic Domain),Melting temperature (Tm) shift (CDK2 + Cyclin E),Melting temperature (Tm) shift (AKT3 Catalytic Domain),Melting temperature (Tm) shift [3],Melting temperature (Tm) shift (CDK2 + Cyclin A),Melting temperature (Tm) shift (CHK2 Catalytic Domain),Melting temperature (Tm) shift (FES Catalytic Domain)
"Scytonemin [Scytonemin, Lyngbya sp.]",0.3 degrees Celcius,0.0 degrees Celcius,0.0 degrees Celcius,0.5 degrees Celcius,0.3 degrees Celcius,0.6 degrees Celcius,0.2 degrees Celcius,0.4 degrees Celcius,0.2 degrees Celcius,0.8 degrees Celcius,0.0 degrees Celcius,0.7 degrees Celcius,0.3 degrees Celcius,,
Cc1cc(C=C2C(=O)C=CC2=O)cc(C)c1O [TX-1918],,,0.0 degrees Celcius,0.1 degrees Celcius,,,,,0.5 degrees Celcius,0.4 degrees Celcius,4.5 degrees Celcius,1.1 degrees Celcius,0.4 degrees Celcius,2.6 degrees Celcius,
COc1cc2ncnc(Nc3ccc(OCc4ccccc4)cc3)c2cc1OC [EGFR/ErbB-2 Inhibitor],0.8 degrees Celcius,0.0 degrees Celcius,1.4 degrees Celcius,0.2 degrees Celcius,0.3 degrees Celcius,0.3 degrees Celcius,0.1 degrees Celcius,0.2 degrees Celcius,,0.1 degrees Celcius,0.1 degrees Celcius,0.0 degrees Celcius,0.0 degrees Celcius,11.2 degrees Celcius,0.0 degrees Celcius
O=C(c1cc2cc(O)ccc2[nH]1)c1cc2cc(O)ccc2[nH]1 [Flt-3 Inhibitor II],1.3 degrees Celcius,0.6 degrees Celcius,1.3 degrees Celcius,2.3 degrees Celcius,,0.9 degrees Celcius,0.0 degrees Celcius,2.3 degrees Celcius,0.4 degrees Celcius,0.2 degrees Celcius,0.1 degrees Celcius,0.9 degrees Celcius,0.9 degrees Celcius,2.2 degrees Celcius,1.0 degrees Celcius
O=C1Nc2ccccc2C1=C1Nc2ccccc2C1=NOCCC(O)CO (stereo not shown) [Indirubin Derivative E804],2.8 degrees Celcius,1.7 degrees Celcius,3.1 degrees Celcius,5.2 degrees Celcius,0.6 degrees Celcius,1.9 degrees Celcius,1.0 degrees Celcius,3.5 degrees Celcius,2.8 degrees Celcius,1.1 degrees Celcius,0.7 degrees Celcius,2.1 degrees Celcius,,2.2 degrees Celcius,1.1 degrees Celcius
CCCCn1c2ccc(O)cc2c2c3c(c(-c4ccccc4Cl)cc21)C(=O)NC3=O [Wee1 Inhibitor II],0.2 degrees Celcius,0.3 degrees Celcius,0.3 degrees Celcius,,0.6 degrees Celcius,0.5 degrees Celcius,0.2 degrees Celcius,1.2 degrees Celcius,0.9 degrees Celcius,0.8 degrees Celcius,0.1 degrees Celcius,1.0 degrees Celcius,0.1 degrees Celcius,0.1 degrees Celcius,0.0 degrees Celcius
COc1ccc2c(c1)c(C1=C(c3c[nH]c4ccccc34)C(=O)NC1=O)cn2CCCN(C)C [Gö 6983],,0.1 degrees Celcius,0.2 degrees Celcius,0.2 degrees Celcius,1.9 degrees Celcius,0.0 degrees Celcius,0.7 degrees Celcius,0.7 degrees Celcius,,0.1 degrees Celcius,0.0 degrees Celcius,,0.4 degrees Celcius,5.6 degrees Celcius,0.9 degrees Celcius
COc1cc(Nc2ncc3ccn(-c4cccc(CCC#N)c4)c3n2)cc(OC)c1OC [Keratinocyte Differentiation Inducer],1.8 degrees Celcius,0.0 degrees Celcius,3.0 degrees Celcius,3.6 degrees Celcius,3.2 degrees Celcius,5.5 degrees Celcius,3.4 degrees Celcius,4.3 degrees Celcius,,2.3 degrees Celcius,0.0 degrees Celcius,7.3 degrees Celcius,4.3 degrees Celcius,8.3 degrees Celcius,5.5 degrees Celcius
